Data taken from patent US12398120B2, “Substituted hydantoinamides as ADAMTS7 antagonists” (BAYER AKTIENGESELLSCHAFT, priority 2019, dated 2025).

Each molecule was assayed against ADAMTS4 (Homo sapiens (Human), UniProt O75173) (assay: Selectivity assay for ADAMTS-7 modulators: ADAMTS4 (FRET substrate)). Conditions: ADAMTS4 (R&D 4307-AD) 50 nM, substrate Dabcyl-EEVKAKVQPY-Glu(Edans)-NH2 1 μM, 120 min, 32° C.
Type: biochemical
Summary of the method: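 Activity read as rising fluorescence after a FRET substrate is cleaved by human ADAMTS4, with reactions started by substrate addition to wells holding compound or DMSO. Percent inhibition plotted against concentration gave IC50.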

Chain of ADAMTS4 (O75173 213-685): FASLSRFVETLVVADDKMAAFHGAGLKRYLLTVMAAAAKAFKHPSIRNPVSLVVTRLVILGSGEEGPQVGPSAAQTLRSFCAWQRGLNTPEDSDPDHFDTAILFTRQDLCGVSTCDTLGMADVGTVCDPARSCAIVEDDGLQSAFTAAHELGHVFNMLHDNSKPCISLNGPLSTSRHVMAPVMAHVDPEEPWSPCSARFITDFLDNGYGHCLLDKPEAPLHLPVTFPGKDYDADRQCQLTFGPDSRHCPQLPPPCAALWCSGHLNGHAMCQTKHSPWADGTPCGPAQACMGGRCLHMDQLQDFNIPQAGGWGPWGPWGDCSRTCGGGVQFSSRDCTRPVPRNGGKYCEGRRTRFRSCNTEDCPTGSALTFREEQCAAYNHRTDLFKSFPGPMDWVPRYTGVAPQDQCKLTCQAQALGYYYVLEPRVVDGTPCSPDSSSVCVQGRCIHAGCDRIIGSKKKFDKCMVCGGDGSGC

Row | Compound | IC50
1 | O=C1NC(=O)C(CNC(=O)c2ccccc2-c2ccc(C(F)(F)F)cc2)(C2(F)CC2)N1 (stereo not drawn) [Example 255, Ent-N-{[4-(1-Fluorocyclopropyl)-2,5-Dioxoimidazolidin-4-Yl]Methyl}-4′-(Trifluoromethyl)[Biphenyl]-2-Carboxamide] | 10 µM
2 | O=C1NC(=O)C(CNC(=O)c2ccccc2-c2ccc(C(F)(F)F)cc2)(c2ccnn2C(F)F)N1 (stereo not drawn) [Example 261, Ent-N-({4-[1-(Difluoromethyl)-1H-Pyrazol-5-Yl]-2,5-Dioxoimidazolidin-4-Yl}Methyl)-4′-(Trifluoromethyl)[Biphenyl]-2-Carboxamide] | > 50 µM
3 | O=C1NC(=O)C(CNC(=O)c2ccccc2-c2ccc(C(F)(F)F)cc2)(c2ncsc2C(F)(F)F)N1 (stereo not drawn) [Example 264, Ent-N-({2,5-Dioxo-4-[5-(Trifluoromethyl)-1,3-Thiazol-4-Yl]Imidazolidin-4-Yl}Methyl)-4′-(Trifluoromethyl)[Biphenyl]-2-Carboxamide] | 11 µM
4 | O=C1NC(=O)C(CNC(=O)c2cc(F)ccc2-c2ccc(C(F)(F)F)cc2)(c2ncsc2C(F)(F)F)N1 (stereo not drawn) [Example 266, Ent-N-({2,5-Dioxo-4-[5-(Trifluoromethyl)-1,3-Thiazol-4-Yl]Imidazolidin-4-Yl}Methyl)-4-Fluoro-4′-(Trifluoromethyl)[Biphenyl]-2-Carboxamide] | 10 µM
5 | O=C1NC(=O)C(CNC(=O)c2ccc(F)cc2-c2ccc(C(F)(F)F)cc2)(c2ncsc2C(F)(F)F)N1 (stereo not drawn) [Example 268, Ent-N-({2,5-Dioxo-4-[5-(Trifluoromethyl)-1,3-Thiazol-4-Yl]Imidazolidin-4-Yl}Methyl)-5-Fluoro-4′-(Trifluoromethyl)[Biphenyl]-2-Carboxamide] | 27 µM
6 | O=C1NC(=O)C(CNC(=O)c2ccccc2-c2ccc(C(F)(F)F)cc2)(c2ncsc2C2CC2)N1 (stereo not drawn) [Example 271, Ent-N-{[4-(5-Cyclopropyl-1,3-Thiazol-4-Yl)-2,5-Dioxoimidazolidin-4-Yl]Methyl}-4′-(Trifluoromethyl)[Biphenyl]-2-Carboxamide] | 2.7 µM
7 | O=C1NC(=O)C(CNC(=O)c2ccc(F)cc2-c2ccc(C(F)(F)F)cc2)(c2ncsc2C2CC2)N1 (stereo not drawn) [Example 273, Ent-N-{[4-(5-Cyclopropyl-1,3-Thiazol-4-Yl)-2,5-Dioxoimidazolidin-4-Yl]Methyl}-5-Fluoro-4′-(Trifluoromethyl)[Biphenyl]-2-Carboxamide] | 26.8 µM
8 | O=C1NC(=O)C(CNC(=O)c2ccccc2-c2ccc(C(F)(F)F)nc2)(c2ncsc2C2CC2)N1 (stereo not drawn) [Example 274, Ent-N-{[4-(5-Cyclopropyl-1,3-Thiazol-4-Yl)-2,5-Dioxoimidazolidin-4-Yl]Methyl}-2-[6-(Trifluoromethyl)Pyridin-3-Yl]Benzamide] | 3.8 µM
9 | O=C1NC(=O)C(CNC(=O)c2ccccc2-c2ccc(C(F)(F)F)nc2)(c2cscn2)N1 (stereo not drawn) [Example 277, Ent-N-{[2,5-Dioxo-4-(1,3-Thiazol-4-Yl)Imidazolidin-4-Yl]Methyl}-2-[6-(Trifluoromethyl)Pyridin-3-Yl]Benzamide] | 16 µM
10 | O=C1NC(=O)C(CNC(=O)c2ccc(F)c(F)c2-c2ccc(C(F)(F)F)cc2)(c2cscn2)N1 (stereo not drawn) [Example 278, Ent-N-{[2,5-Dioxo-4-(1,3-Thiazol-4-Yl)Imidazolidin-4-Yl]Methyl}-5,6-Difluoro-4′-(Trifluoromethyl)[Biphenyl]-2-Carboxamide] | 8.6 µM
11 | O=C1NC(=O)C(CNC(=O)c2ccccc2-c2ccc(C(F)(F)F)cc2)(C2(Cl)CC2)N1 (stereo not drawn) [Example 280, Ent-N-{[4-(1-Chlorocyclopropyl)-2,5-Dioxoimidazolidin-4-Yl]Methyl}-4′-(Trifluoromethyl)[Biphenyl]-2-Carboxamide] | 7.1 µM
12 | O=C1NC(=O)[C@](CNC(=O)c2ccc(F)cc2-c2ccc(C(F)(F)F)nc2)(C2CC2)N1 [Example 290, N-{[(4R)-4-Cyclopropyl-2,5-Dioxoimidazolidin-4-Yl]Methyl}-4-Fluoro-2-[6-(Trifluoromethyl)Pyridin-3-Yl]Benzamide] | 21 µM
